{"source": "paper PMC7177833", "about": "“2-Aminopyridine Analogs Inhibit Both Enzymes of the Glyoxylate Shunt in Pseudomonas aeruginosa” (International Journal of Molecular Sciences, 2020)", "key": {"CYP1A2": {"molecular_target": "T1, CYP1A2 (Homo sapiens, UniProt P05177)", "T1 sequence (P05177 1-516)": "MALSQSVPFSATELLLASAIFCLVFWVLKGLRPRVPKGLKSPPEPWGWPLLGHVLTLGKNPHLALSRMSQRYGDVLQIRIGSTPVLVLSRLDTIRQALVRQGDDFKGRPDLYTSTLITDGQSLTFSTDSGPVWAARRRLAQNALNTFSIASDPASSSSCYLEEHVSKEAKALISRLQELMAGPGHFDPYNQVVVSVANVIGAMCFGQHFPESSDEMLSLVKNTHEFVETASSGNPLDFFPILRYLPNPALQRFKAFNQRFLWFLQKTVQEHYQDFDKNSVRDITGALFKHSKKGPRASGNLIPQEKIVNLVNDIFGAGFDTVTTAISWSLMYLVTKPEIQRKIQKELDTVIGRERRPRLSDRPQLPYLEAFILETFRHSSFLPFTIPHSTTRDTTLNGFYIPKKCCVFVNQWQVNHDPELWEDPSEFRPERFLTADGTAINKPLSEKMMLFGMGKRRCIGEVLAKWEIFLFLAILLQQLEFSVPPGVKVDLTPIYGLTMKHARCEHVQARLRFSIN", "experiment": "CYP450 inhibition in HLM, phenacetin probe", "protocol": "The CYP450 inhibition was determined by measuring the reaction products of known CYP450 substrates (probes). Probe solutions were prepared by diluting stock solutions with buffer (100 mM Tris-HCl, pH 7.5, and 0.5 mM EDTA) to the final indicated concentrations (Figure 5), and adding 180 µL of pooled human liver microsomes (20 mg/mL) (BioIVT, West Sussex, UK). These probe solutions were dispensed (195 µL) into clear 96-well plates with low evaporation lids (Corning, Turin, Italy) and the plates were prewarmed to 37 °C in a thermomixer (Hamilton, Agrate Brianza, Italy). Next, 5 µL of the test compound or appropriate positive control (Table S4) were added to the wells and the plates were incubated for a further 5 min. Following this, the reactions were started by adding NADPH regenerating solution (50 µL, see previous Section 4.7) to each well. CYP450 mixtures containing phenacetin, rosiglitazone, mephenytoin, atorvastatin, and nifedipine probes were incubated for 10 min at 37 °C, whereas those with midazolam and diclofenac were incubated for 5 min at 37 °C. Aliquots (100 µL) from each reaction mixture were quenched in 200 µL acetonitrile, and the mixtures were sedimented at 3000 ×g for 10 min at 4 °C. The supernatants were diluted in water containing 5 ng/mL Rolipram as an internal standard for LC-MS/MS analysis. All incubations were carried out in triplicate.\nProbe products were analyzed on an API4000 Qtrap mass spectrometer (Applied Biosystems/MDS SCIEX, Monza, Italy) coupled with an Acquity UPLC system (Waters, Milan, Italy) and a CTC-PAL auto-injector (CTC Analytics AG, Zwingen, Switzerland). […] The column temperature was maintained at 60 °C. The injected sample volume was 10 µL, and analytes were eluted at a flow rate of 800 µL/min in a gradient of eluent A (water with 0.1% formic acid) and eluent B (acetonitrile with 0.1% formic acid). […] The analytes were quantified in multiple reaction-monitoring mode. Data were processed, and the percentage control activity was calculated based on a comparison between the ratio of the sample peak area and the peak area."}, "[1]": {"experiment": "Metabolic stability in human liver microsomes", "format": "in vitro ADME", "conditions": "HLM; for Clh, int (predicted hepatic clearance): scaled; for Clh (predicted in vivo hepatic clearance): well-stirred model; for half-life at 0.5 µM / microsomal CLint at 0.5 µM: human, pooled human liver microsomes, pH 7.4", "protocol": "The metabolic stability of the test compounds was measured following incubation with liver microsomes from humans (BioIVT, lot no. IHG; West Sussex, UK) and rats (BD Gentest, lot no. 60614; BD Biosciences, Milan, Italy). Verapamil and dextromethorphan were used as positive controls. An automated incubation procedure was performed using the RSP Freedom Evo liquid dispensing and incubation system (TECAN, Milan, Italy). Five microliters of 50 µM test compound or positive control were added to 445 µL of microsomal suspension in 96 deep-well plates. The microsomal preparation comprised 0.56 mg/mL of pooled and homogenized liver microsomes suspended in 50 mM potassium phosphate buffer, pH 7.4. After 5 min at 37 °C, the reactions were initiated by adding 50 µL of prewarmed NADPH regenerating buffer to each sample. The regenerating buffer comprised a 2% NaHCO3 solution containing 1.7 mg NADP, 7.8 mg glucose-6-phosphate, and 6 units of glucose-6-phosphate dehydrogenase per mL. The samples were incubated at 37 °C, and 50 µL aliquots were withdrawn after 0, 3, 10, 15, 30, and 45 min and quenched in 150 µL acetonitrile. […] The analytical column was a Synergi “Max-RP” reverse phase C12 with TMS endcapping (30 mm × 2 mm, 4 µm particle size) (Phenomenex, Inc., Bologna, Italy). The column temperature was maintained at 60 °C. […] Analytes were quantified in multiple reaction-monitoring mode. Peak areas were integrated using Integrator Software from Agilent (Agilent Technologies, Milan, Italy) and were divided by the peak areas of the internal standard. The percentage of parent compound remaining was calculated by normalizing the peak area ratio of the parent compound to that of the internal standard at time 0. The half-lives of compound metabolism were derived from the linear portion of the slope of ln percent parent compound vs time. Intrinsic clearance in liver microsomes was estimated from: (1) Clint=k×(V/M) (2) Clh, int=(Clint (×1st Scaling factor)×2^ndScaling factor) (3) Clh=(Q×Clh, int)/(Q+Clh, int).\nHere, k is the rate of depletion of the parent compound ([…]), V is the volume of the reaction mixture in mL, and M is the concentration of microsomal protein (in mg/mL). The amounts of protein in the incubations were scaled relative to the average liver- and body-mass of each species to obtain intrinsic hepatic clearance (Clh, int, in […]) (Table S3). These scaling factors were used along with the average hepatic blood flow (Q, in […]) of each species to obtain in vivo correlations (Clh, in mL/min/kg) using the well-stirred model."}}}
{"smiles": "Nc1cc(Cl)ccn1", "note": "[Compound 2-AP, 2-amino-4-chloropyridine, reference compound]", "values": [{"measurement": "IC50", "setting": "CYP1A2", "value": "> 100", "unit": "µM"}, {"measurement": "Clh, int (predicted hepatic clearance)", "setting": "[1]", "value": 34.33, "unit": "mL/min/kg"}, {"measurement": "Clh (predicted in vivo hepatic clearance)", "setting": "[1]", "value": 12.91, "unit": "mL/min/kg"}, {"measurement": "half-life at 0.5 µM", "setting": "[1]", "value": 0.911, "unit": "h"}, {"measurement": "microsomal CLint at 0.5 µM", "setting": "[1]", "value": 25.4, "unit": "µL/min/mg"}]}
{"smiles": "CC(C)(C)OC(=O)/N=C(\\NC(=O)OC(C)(C)C)Nc1cc(C#N)ccn1", "note": "[SB023]", "values": [{"measurement": "IC50", "setting": "CYP1A2", "value": "> 100", "unit": "µM"}, {"measurement": "T1/2", "setting": "[1]", "value": 1.214, "unit": "h"}, {"measurement": "Clh, int (predicted hepatic clearance)", "setting": "[1]", "value": 25.75, "unit": "mL/min/kg"}, {"measurement": "Clh (predicted in vivo hepatic clearance)", "setting": "[1]", "value": 11.48, "unit": "mL/min/kg"}, {"measurement": "half-life at 0.5 µM", "setting": "[1]", "value": 1.2, "unit": "h"}, {"measurement": "microsomal CLint at 0.5 µM", "setting": "[1]", "value": 19.1, "unit": "µL/min/mg"}]}
{"smiles": "CC(C)(C)OC(=O)/N=C(\\NC(=O)OC(C)(C)C)Nc1cc(Cl)ccn1", "note": "[SB002]", "values": [{"measurement": "IC50", "setting": "CYP1A2", "value": "> 100", "unit": "µM"}, {"measurement": "T1/2", "setting": "[1]", "value": 1.342, "unit": "h"}, {"measurement": "Clh, int (predicted hepatic clearance)", "setting": "[1]", "value": 23.31, "unit": "mL/min/kg"}, {"measurement": "Clh (predicted in vivo hepatic clearance)", "setting": "[1]", "value": 10.96, "unit": "mL/min/kg"}, {"measurement": "half-life at 0.5 µM", "setting": "[1]", "value": 1.35, "unit": "h"}, {"measurement": "microsomal CLint at 0.5 µM", "setting": "[1]", "value": 17.3, "unit": "µL/min/mg"}]}
